# Experimental data taken from patent US20040214809A1, “Stabilized silver-ion sulfite complex compositions and methods” (BioInterface Technologies, Inc., priority 2003, published 2004).
# Columns and labels:
# S. aureus (ATCC 29213) = assay: Filter disc zone of inhibition on tryptic soy agar; type: cell-based; conditions: 7 mm filter disc soaked with solution (equivalent of 1% silver nitrate), 37° C. overnight, measured from disc edge, average of two trials
# Description: (§1) Additionally, a non-stabilized silver thiosulfate complex made according to Example 5. […] Filter paper discs (7 mm diameter) were soaked with either a stabilized silver thiosulfate solution or a non-stabilized silver thiosulfate solution. The antimicrobial studies were performed by first plating S. aureus (ATCC 29213) or E. coli (ATCC 225922) on tryptic soy agar. A disc containing the stabilized thiosulfate solution or the control solution was placed one each of these microbial lawns. […] The culture plates were incubated at 37° C. overnight. The zone of microbial growth inhibition (ZOI) was measured (in millimeters) from the edge of each filter disc and the results from two trials were averaged. The larger the measured ZOI, the greater the antimicrobial effect.
# E. coli (ATCC 225922) = assay: Filter disc zone of inhibition on tryptic soy agar; type: cell-based; conditions: 7 mm filter disc soaked with solution (equivalent of 1% silver nitrate), 37° C. overnight, measured from disc edge, average of two trials
# Description: as §1
substance,measurement,setting,value
silver nitrate [Silver Nitrate Solution],S. aureus Zone Of Inhibition,S. aureus (ATCC 29213),1.5 millimeters
same,E. coli Zone Of Inhibition,E. coli (ATCC 225922),1.0 millimeters
